Laboratory results as given in PubChem BioAssay AID1963847 (Molecular Pharmacology Branch, DTP, NCI, 2024).

Test system: 415267-285-R-J2-PDC complex spheroid viability
Experiment: Anticancer human tumor 415267-285-R-J2-PDC patient-derived breast carcinoma cell line growth inhibition [POLQ]
Conditions: for IC50: curve of first compound; for viability, T/C: stronger effect = lower value
Procedure: Multicellular complex tumor spheroid response to Polymerase (POL) inhibitors (novobiocin, ART-558, RP6685) in combination with a variety of drugs and investigational agents in selected tumor cell lines
The POL inhibitors (novobiocin, ART-558, and RP6685) were evaluated both individually and in combination with standard of care and investigational anticancer small molecules within a complex spheroid model of solid tumors. . Complex spheroids include a stromal component modeled by human endothelial cells (HUVEC) and fibroblasts modeled by human mesenchymal stem cells (MSCs). The concentration ranges selected for each drug and investigational agent were based upon clinically achievable concentrations if the clinical Cmax of the agent was known.
Compounds. The drugs and investigational agents: novobiocin (NSC847541), ART-558 (NSC835418), RP-6685 (NSC848927), peposertib (NSC802822), ceralasertib (NSC780249), elimusertib (NSC800525), camonsertib (NSC841442), AZD-1390 (NSC803789), olaparib (NSC753686), talazoparib (NSC767125), rucaparib (NSC756644), sotorasib (NSC818433), MRTX-1133 (NSC836407), SN-38 (NSC673596), topotecan (NSC609699), epotoside (NSC141540), doxorubicin (NSC123127), gemcitabine (NSC613327), 5-fluorouracil (NSC19893), paclitaxel (NSC125973), vemurafenib (NSC761431), MSA-2 (NSC828583), SN-011 (NSC837082), adavosertib (NSC754352), prexasertib (NSC758257), carboplatin (NSC241240) and oxaliplatin (NSC266046), were obtained from the National Cancer Institute (NCI) Developmental Therapeutics Program Chemical Repository (21). The FDA-approved anticancer drug set is available from the Developmental Therapeutics Program at https://dtp.cancer.gov/organization/dscb/obtaining/. […] The stock solutions were prepared in dimethyl sulfoxide (DMSO, Sigma-Aldrich, St. Louis, MO, cat. D2650), except for the platinum compounds which were prepared in saline (Quality Biological, Gaithersburg, MD, cat. 114-055-101), at 800-fold the tested concentration and stored at -70 degrees C prior to their use. All drugs and investigational agents were tested over a range starting from a high concentration at or near the clinical Cmax and decreasing in half-log increments. If the clinical Cmax for an agent had not been determined, the highest concentration tested was 10 microM, except for SN-38, which was tested at a high concentration of 1 microM.
Cell Culture. All cells were maintained in an incubator at 37 degrees C and 5% CO2 with 95% humidity. The PDC lines were cultured according to standard operating procedures established by the NCI PDMR (https://pdmr.cancer.gov). Table 3 of the manuscript, lists the cell lines along with the number of the three cell types plated to form the mct-spheroids and media for tumor cell growth. After thawing, all PDC lines, except 997537-175-T-J1-PDC and 415267-285-R-J2-PDC, were cultured in Matrigel-coated flasks prepared with a working solution of 1X Ham's F-12 nutrient mix, without supplementation (Thermo Fisher Scientific, cat. 11765054), 100 U/mL penicillin-streptomycin (Thermo Fisher Scientific, cat. 15140122), and 2.5% Matrigel (Corning Inc., Corning, NY, cat. 354248) for the first three passages. The two PDC lines 997537-175-T-J1-PDC and 415267-285-R-J2-PDC were cultured on uncoated flasks. The 857933-349-R-J2-PDC line was cultured in 6C/Colon 1B media containing advanced DMEM/F-12 (Thermo Fisher Scientific, cat. 12634028), 10 mM HEPES (Thermo Fisher Scientific, cat. 15630080), 1X GlutaMAX supplement (Thermo Fisher Scientific, cat. 35050061), 0.1 mg/mL primocin (InvivoGen, San Diego, CA, cat. ant-pm-2), 10% defined fetal bovine serum, heat inactivated (HyClone Laboratories Inc., Logan, UT, cat. SH30070.03HI), 50% L-WRN conditioned media (ATCC, cat. CRL-3276), 1.25 mM N-Acetyl-L-cysteine (Sigma-Aldrich, cat. A9165), 10 mM nicotinamide (Sigma-Aldrich, cat. N0636), 1X B-27 supplement (Thermo Fisher Scientific, cat. 17504044), 1X N-2 supplement (Thermo Fisher Scientific, cat. […]
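Note: spheroids exposed to compounds for one week before readout.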
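Throughout, for viability, T/C: luminescence used as stand-in measure of viable cells; 100% = DMSO vehicle control viability.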

## CCc1cc2c(N3CCc4c(cc(Cn5ccnc5)cc4-c4cn(C)nc4C(F)(F)F)C3=O)cc(C)nc2c(OC)n1 + COC1C(OC(N)=O)C(O)C(Oc2ccc3c(O)c(NC(=O)c4ccc(O)c(CC=C(C)C)c4)c(=O)oc3c2C)OC1(C)C
Second compound 0.0316 µM
  IC50: > 10 µM
Second compound 0.1 µM
  IC50: > 10 µM
Second compound 0.316 µM
  IC50: > 10 µM
Second compound 1 µM
  IC50: > 10 µM
Second compound 3.16 µM
  IC50: > 10 µM
Second compound 10 µM
  IC50: > 10 µM
Second compound 0.0316 µM, first compound 0.0316 µM
  viability, T/C: 75.5%
Second compound 0.0316 µM, first compound 0.1 µM
  viability, T/C: 81.8%
Second compound 0.0316 µM, first compound 0.316 µM
  viability, T/C: 84.8%
Second compound 0.0316 µM, first compound 1 µM
  viability, T/C: 76.1%
Second compound 0.0316 µM, first compound 3.16 µM
  viability, T/C: 76%
Second compound 0.0316 µM, first compound 10 µM
  viability, T/C: 64.4%
Second compound 0.1 µM, first compound 0.0316 µM
  viability, T/C: 84%
Second compound 0.1 µM, first compound 0.1 µM
  viability, T/C: 81.9%
Second compound 0.1 µM, first compound 0.316 µM
  viability, T/C: 80.6%
Second compound 0.1 µM, first compound 1 µM
  viability, T/C: 75.6%
Second compound 0.1 µM, first compound 3.16 µM
  viability, T/C: 72.9%
Second compound 0.1 µM, first compound 10 µM
  viability, T/C: 66.8%
Second compound 0.316 µM, first compound 0.0316 µM
  viability, T/C: 93.5%
Second compound 0.316 µM, first compound 0.1 µM
  viability, T/C: 79.9%
Second compound 0.316 µM, first compound 0.316 µM
  viability, T/C: 74.2%
Second compound 0.316 µM, first compound 1 µM
  viability, T/C: 69.5%
Second compound 0.316 µM, first compound 3.16 µM
  viability, T/C: 83.7%
Second compound 0.316 µM, first compound 10 µM
  viability, T/C: 65.9%
Second compound 1 µM, first compound 0.0316 µM
  viability, T/C: 94.1%
Second compound 1 µM, first compound 0.1 µM
  viability, T/C: 79.6%
Second compound 1 µM, first compound 0.316 µM
  viability, T/C: 68.1%
Second compound 1 µM, first compound 1 µM
  viability, T/C: 73.9%
Second compound 1 µM, first compound 3.16 µM
  viability, T/C: 73.6%
Second compound 1 µM, first compound 10 µM
  viability, T/C: 55.5%
Second compound 3.16 µM, first compound 0.0316 µM
  viability, T/C: 92.3%
Second compound 3.16 µM, first compound 0.1 µM
  viability, T/C: 98.6%
Second compound 3.16 µM, first compound 0.316 µM
  viability, T/C: 73.8%
Second compound 3.16 µM, first compound 1 µM
  viability, T/C: 85.3%
Second compound 3.16 µM, first compound 3.16 µM
  viability, T/C: 80.9%
Second compound 3.16 µM, first compound 10 µM
  viability, T/C: 73.5%
Second compound 10 µM, first compound 0.0316 µM
  viability, T/C: 90.2%
Second compound 10 µM, first compound 0.1 µM
  viability, T/C: 85.9%
Second compound 10 µM, first compound 0.316 µM
  viability, T/C: 88.3%
Second compound 10 µM, first compound 1 µM
  viability, T/C: 82%
Second compound 10 µM, first compound 3.16 µM
  viability, T/C: 68.5%
Second compound 10 µM, first compound 10 µM
  viability, T/C: 59.7%
